Results on 14 compounds are retold here after ChEMBL document CHEMBL4325866, “Discovery of a subnanomolar and selective spirocyclic agonist of the glucocorticoid receptor” (Eur J Med Chem, 2019).

In experiment [1] the test system is A549. Description: Potency index, ratio of prednisolone IC50 to test compound IC50 for inhibition of IL1beta-induced IL6 production in human A549 cells. It is filed as functional.
Experiment [2] deals with Blood. Description: Antiinflammatory activity in Sprague-Dawley rat whole blood assessed as inhibition of LPS-induced TNFalpha production measured after 18 hrs by AlphaLisa assay. In kind it is functional, tissue-based. On the technique in general: Alpha assays give light when donor and acceptor beads are brought close together.
In experiment [3] the target is T1, Glucocorticoid receptor (Homo sapiens) (UniProt P04150).
T1 sequence (whole entry): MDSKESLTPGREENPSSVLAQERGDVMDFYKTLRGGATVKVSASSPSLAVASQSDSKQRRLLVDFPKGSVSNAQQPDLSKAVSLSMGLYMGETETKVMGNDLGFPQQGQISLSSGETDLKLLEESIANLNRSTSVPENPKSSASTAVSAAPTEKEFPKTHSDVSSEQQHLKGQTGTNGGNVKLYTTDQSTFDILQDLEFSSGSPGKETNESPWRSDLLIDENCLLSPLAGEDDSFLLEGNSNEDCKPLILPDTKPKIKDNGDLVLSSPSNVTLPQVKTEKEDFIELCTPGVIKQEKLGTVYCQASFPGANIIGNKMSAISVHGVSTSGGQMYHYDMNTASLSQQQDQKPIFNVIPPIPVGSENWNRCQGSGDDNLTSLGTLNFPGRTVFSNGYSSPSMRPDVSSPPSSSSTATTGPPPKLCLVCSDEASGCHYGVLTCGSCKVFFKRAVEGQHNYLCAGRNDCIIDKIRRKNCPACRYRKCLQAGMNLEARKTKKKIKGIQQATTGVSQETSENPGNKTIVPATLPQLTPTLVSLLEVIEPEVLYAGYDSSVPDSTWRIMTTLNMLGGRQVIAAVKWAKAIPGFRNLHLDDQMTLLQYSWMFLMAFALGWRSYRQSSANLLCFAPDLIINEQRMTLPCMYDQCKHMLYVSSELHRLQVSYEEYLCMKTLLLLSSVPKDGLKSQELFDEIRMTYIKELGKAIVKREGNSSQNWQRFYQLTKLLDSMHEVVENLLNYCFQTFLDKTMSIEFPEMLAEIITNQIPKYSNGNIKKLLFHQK
Description: Potency index, ratio of prednisolone IC50 to test compound IC50 for displacement of [3H]dexamethasone from GR in human IM9 cells. In kind it is cell-based.

Experiment [4] deals with A549. The experiment can be described thus: Antiinflammatory activity in human A549 cells assessed as inhibition of IL1beta-induced IL6 production preincubated for 30 mins followed by IL1beta-stimulation and measured after 20 hrs by AlphaLisa assay. It is filed as functional, cell-based.
Experiment [5] has as its target T2, Progesterone receptor (Homo sapiens, UniProt P06401).
T2 sequence (P06401 whole entry): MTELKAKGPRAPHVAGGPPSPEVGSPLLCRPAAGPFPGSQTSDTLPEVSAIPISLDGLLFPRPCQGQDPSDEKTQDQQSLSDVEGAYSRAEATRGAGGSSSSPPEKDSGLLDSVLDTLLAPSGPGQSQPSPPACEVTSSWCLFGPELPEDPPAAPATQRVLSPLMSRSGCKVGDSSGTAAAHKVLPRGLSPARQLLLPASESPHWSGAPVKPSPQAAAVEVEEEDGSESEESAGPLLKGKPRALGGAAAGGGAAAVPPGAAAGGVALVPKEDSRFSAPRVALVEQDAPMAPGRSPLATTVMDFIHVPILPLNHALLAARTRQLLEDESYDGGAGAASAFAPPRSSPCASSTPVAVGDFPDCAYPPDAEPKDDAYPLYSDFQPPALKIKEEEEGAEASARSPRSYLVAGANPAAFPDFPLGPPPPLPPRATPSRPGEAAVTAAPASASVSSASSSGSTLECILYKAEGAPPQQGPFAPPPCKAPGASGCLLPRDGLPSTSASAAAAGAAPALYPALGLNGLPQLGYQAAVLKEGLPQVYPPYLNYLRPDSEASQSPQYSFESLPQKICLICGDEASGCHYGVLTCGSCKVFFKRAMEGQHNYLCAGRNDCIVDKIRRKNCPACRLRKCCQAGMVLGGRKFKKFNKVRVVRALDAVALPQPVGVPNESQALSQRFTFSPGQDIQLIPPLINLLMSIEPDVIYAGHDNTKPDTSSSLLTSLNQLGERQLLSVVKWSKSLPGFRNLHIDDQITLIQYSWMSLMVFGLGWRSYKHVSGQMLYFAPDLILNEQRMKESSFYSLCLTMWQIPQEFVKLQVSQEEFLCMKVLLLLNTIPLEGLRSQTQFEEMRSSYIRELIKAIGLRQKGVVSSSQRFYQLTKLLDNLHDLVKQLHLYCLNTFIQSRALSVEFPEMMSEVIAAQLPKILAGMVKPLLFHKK
The experiment can be described thus: Displacement of [3H]progesterone from progesterone receptor in human T47D cells after 20 hrs by scintillation counting method. It is filed as cell-based. On the technique in general: In a radioligand displacement assay an active substance lowers the binding of a labelled ligand.

Experiment [6] has as its target T3, Glucocorticoid receptor (Homo sapiens, UniProt P04150).
T3 sequence (P04150 whole entry): T1 sequence (whole entry)
Description: Displacement of [3H]dexamethasone from GR in human IM9 cells after 6 hrs by scintillation counting method. In kind it is cell-based.

Turning to `O[C@@]1(c2ccccc2)CCCC[C@@]12C=Cc1c(cnn1-c1ccc(F)cc1)C2`, the “Ratio IC50” value in experiment [1] was determined as 10; in experiment [3], 30. In addition, the IC50 (usually the concentration needed to halve the response being measured) in experiment [2] was 0.004 µM; in experiment [4], 0.0005 µM; in experiment [5], 0.78 µM; in experiment [6] it was 0.00041 µM.
Turning to `O[C@@]1(c2ccccc2)CCC[C@]12C=Cc1c(cnn1-c1ccc(F)cc1)C2`, the IC50 in experiment [6] is > 1 µM.
For `O[C@H]1C(Cc2ccccc2)(Cc2ccccc2)CCC[C@]12C=Cc1c(cnn1-c1ccc(F)cc1)C2`, in experiment [6], the IC50 is > 1 µM.
Still for that read-out and setting: then `O[C@@]1(Cc2ccccc2)CCCCC[C@@]12C=Cc1c(cnn1-c1ccc(F)cc1)C2`, with 0.089 µM.
Consider `Fc1ccc(-n2ncc3c2C=C[C@]2(CCCC=C2c2ccccc2)C3)cc1`, for which the results for the IC50 in experiment [5] and in experiment [6] were > 1 µM and 0.02 µM, respectively.
The compound `O[C@]1(c2ccccc2)CCCCC[C@@]12C=Cc1c(cnn1-c1ccc(F)cc1)C2` registered an IC50 in experiment [6] of 0.0095 µM.
Consider `O[C@@]1(c2ccccc2)CCCCC[C@@]12C=Cc1c(cnn1-c1ccc(F)cc1)C2`, for which the results for the IC50 in experiment [5] and in experiment [6] were > 1 µM and 0.006 µM, respectively.
Turning to `Oc1ccc(C2=CCCC[C@]23C=Cc2c(cnn2-c2ccc(F)cc2)C3)cc1`, the IC50 in experiment [6] came out at 0.01 µM.
On to `COc1ccc(C2=CCCC[C@]23C=Cc2c(cnn2-c2ccc(F)cc2)C3)cc1`, for which the IC50 in experiment [6] worked out at 0.135 µM.
In experiment [6], `O[C@]1(c2ccccc2)CCCC[C@@]12C=Cc1c(cnn1-c1ccc(F)cc1)C2` registered an IC50 of 1.01 µM.
In turn, `O[C@]1(Cc2ccccc2)CCCCC[C@@]12C=Cc1c(cnn1-c1ccc(F)cc1)C2` gave an IC50 in experiment [6] of 0.13 µM.
On the same count and under the same terms, for `C#CC[C@H]1CCC[C@]2(C=Cc3c(cnn3-c3ccc(F)cc3)C2)[C@H]1O` the value was > 1 µM.
Turning to `C[C@]12C=CC(=O)C=C1CC[C@@H]1[C@@H]2[C@@H](O)C[C@@]2(C)[C@H]1CC[C@]2(O)C(=O)CO` [PREDNISOLONE], the IC50 in experiment [2] came out at 0.0046 µM; in experiment [4], 0.0058 µM.
Take `O[C@H]1[C@@H](Cc2ccccc2)CCC[C@]12C=Cc1c(cnn1-c1ccc(F)cc1)C2`: the IC50 in experiment [6] is > 1 µM.
